{"source": "patent US20260217701A1", "about": "“SELECTIVE BET INHIBITORS AND USES THEREOF” (Tay Therapeutics Limited, priority 2022, published 2026)", "tested_on": "imiquimod-induced psoriasis", "test": "Imiquimod-induced psoriasis model", "format": "in vivo, mice", "conditions": "for Mean scores of the presence of erythema on the skin of animals at the area of induction of psoriasis / Mean scores of the presence of induration on the skin of animals at the area of induction of psoriasis / Mean scores of the presence of peeling on the skin of animals at the area of induction of psoriasis: mean ± SEM; for Mean PASI Scores in IMI-Psoriasis Model: mice", "outline": "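Mice given topical imiquimod (5% cream) daily on depilated backs Days 1–14; Compound A in 5% DMSO/40% PEG-400/55% saline from Day 8, clobetasol topical as reference. Daily PASI (erythema, induration, peeling, each 0–4, summed) Days 8–15; spleen weight, open-field behaviour, serum IL-1B, IL-6, IL-17, TNF-α, IL-22, IL-23 at Day 15.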", "key": {"[1]": {"conditions": "IMI + 10 mg/kg, D8 (before start of treatment)"}}}
{"smiles": "Cn1cc(-c2ccccc2)c(-c2cn(C)c(=O)c3[nH]c(-c4cnn(C(F)(F)F)c4)cc23)cc1=O", "note": "[Compound A, 6-methyl-4-(1-methyl-2-oxo-5-phenyl-1,2-dihydropyridin-4-yl)-2-(1-(trifluoromethyl)-1H-pyrazol-4-yl)-1,6-dihydro-7H-pyrrolo[2,3-c]pyridin-7-one]", "values": [{"measurement": "Mean scores of the presence of erythema on the skin of animals at the area of induction of psoriasis", "setting": "IMI + 3 mg/kg, D15", "result": "0.0 ± 0.0"}, {"measurement": "Mean scores of the presence of induration on the skin of animals at the area of induction of psoriasis", "setting": "IMI + 3 mg/kg, D15", "result": "0.1 ± 0.1"}, {"measurement": "Mean scores of the presence of peeling on the skin of animals at the area of induction of psoriasis", "setting": "IMI + 3 mg/kg, D15", "result": "0.3 ± 0.2"}, {"measurement": "Mean scores of the presence of erythema on the skin of animals at the area of induction of psoriasis", "setting": "[1]", "result": "2.3 ± 0.2"}, {"measurement": "Mean scores of the presence of induration on the skin of animals at the area of induction of psoriasis", "setting": "[1]", "result": "2.6 ± 0.2"}, {"measurement": "Mean scores of the presence of peeling on the skin of animals at the area of induction of psoriasis", "setting": "[1]", "result": "2.3 ± 0.3"}, {"measurement": "Mean scores of the presence of erythema on the skin of animals at the area of induction of psoriasis", "setting": "IMI + 10 mg/kg, D9", "result": "1.2 ± 0.2"}, {"measurement": "Mean scores of the presence of induration on the skin of animals at the area of induction of psoriasis", "setting": "IMI + 10 mg/kg, D9", "result": "2.0 ± 0.3"}, {"measurement": "Mean scores of the presence of peeling on the skin of animals at the area of induction of psoriasis", "setting": "IMI + 10 mg/kg, D9", "result": "2.0 ± 0.3"}, {"measurement": "Mean scores of the presence of erythema on the skin of animals at the area of induction of psoriasis", "setting": "IMI + 10 mg/kg, D10", "result": "1.0 ± 0.2"}, {"measurement": "Mean scores of the presence of induration on the skin of animals at the area of induction of psoriasis", "setting": "IMI + 10 mg/kg, D10", "result": "1.8 ± 0.2"}, {"measurement": "Mean scores of the presence of peeling on the skin of animals at the area of induction of psoriasis", "setting": "IMI + 10 mg/kg, D10", "result": "1.5 ± 0.2"}, {"measurement": "Mean scores of the presence of erythema on the skin of animals at the area of induction of psoriasis", "setting": "IMI + 10 mg/kg, D11", "result": "1.3 ± 0.2"}, {"measurement": "Mean scores of the presence of induration on the skin of animals at the area of induction of psoriasis", "setting": "IMI + 10 mg/kg, D11", "result": "1.6 ± 0.2"}, {"measurement": "Mean scores of the presence of peeling on the skin of animals at the area of induction of psoriasis", "setting": "IMI + 10 mg/kg, D11", "result": "1.5 ± 0.2"}, {"measurement": "Mean scores of the presence of erythema on the skin of animals at the area of induction of psoriasis", "setting": "IMI + 10 mg/kg, D12", "result": "0.5 ± 0.2"}, {"measurement": "Mean scores of the presence of induration on the skin of animals at the area of induction of psoriasis", "setting": "IMI + 10 mg/kg, D12", "result": "1.1 ± 0.2"}, {"measurement": "Mean scores of the presence of peeling on the skin of animals at the area of induction of psoriasis", "setting": "IMI + 10 mg/kg, D12", "result": "1.3 ± 0.2"}, {"measurement": "Mean scores of the presence of erythema on the skin of animals at the area of induction of psoriasis", "setting": "IMI + 10 mg/kg, D13", "result": "0.1 ± 0.1"}, {"measurement": "Mean scores of the presence of induration on the skin of animals at the area of induction of psoriasis", "setting": "IMI + 10 mg/kg, D13", "result": "0.8 ± 0.2"}, {"measurement": "Mean scores of the presence of peeling on the skin of animals at the area of induction of psoriasis", "setting": "IMI + 10 mg/kg, D13", "result": "0.6 ± 0.2"}, {"measurement": "Mean scores of the presence of erythema on the skin of animals at the area of induction of psoriasis", "setting": "IMI + 10 mg/kg, D14", "result": "0.0 ± 0.0"}, {"measurement": "Mean scores of the presence of induration on the skin of animals at the area of induction of psoriasis", "setting": "IMI + 10 mg/kg, D14", "result": "0.4 ± 0.2"}, {"measurement": "Mean scores of the presence of peeling on the skin of animals at the area of induction of psoriasis", "setting": "IMI + 10 mg/kg, D14", "result": "0.3 ± 0.2"}, {"measurement": "Mean scores of the presence of erythema on the skin of animals at the area of induction of psoriasis", "setting": "IMI + 10 mg/kg, D15", "result": "0.0 ± 0.0"}, {"measurement": "Mean scores of the presence of induration on the skin of animals at the area of induction of psoriasis", "setting": "IMI + 10 mg/kg, D15", "result": "0.1 ± 0.1"}, {"measurement": "Mean scores of the presence of peeling on the skin of animals at the area of induction of psoriasis", "setting": "IMI + 10 mg/kg, D15", "result": "0.3 ± 0.2"}, {"measurement": "Mean PASI Scores in IMI-Psoriasis Model", "setting": "IMI + 1 mg/kg, D8 (before start of treatment)", "result": "7.3 ± 0.3"}, {"measurement": "Mean PASI Scores in IMI-Psoriasis Model", "setting": "IMI + 1 mg/kg, D9", "result": "7.0 ± 0.4"}, {"measurement": "Mean PASI Scores in IMI-Psoriasis Model", "setting": "IMI + 1 mg/kg, D10", "result": "6.0 ± 0.4"}, {"measurement": "Mean PASI Scores in IMI-Psoriasis Model", "setting": "IMI + 1 mg/kg, D11", "result": "5.8 ± 0.5"}, {"measurement": "Mean PASI Scores in IMI-Psoriasis Model", "setting": "IMI + 1 mg/kg, D12", "result": "4.4 ± 0.3"}, {"measurement": "Mean PASI Scores in IMI-Psoriasis Model", "setting": "IMI + 1 mg/kg, D13", "result": "3.1 ± 0.4"}, {"measurement": "Mean PASI Scores in IMI-Psoriasis Model", "setting": "IMI + 1 mg/kg, D14", "result": "2.1 ± 0.3"}, {"measurement": "Mean PASI Scores in IMI-Psoriasis Model", "setting": "IMI + 1 mg/kg, D15", "result": "1.1 ± 0.2"}, {"measurement": "Mean PASI Scores in IMI-Psoriasis Model", "setting": "IMI + 3 mg/kg, D8 (before start of treatment)", "result": "6.9 ± 0.4"}, {"measurement": "Mean PASI Scores in IMI-Psoriasis Model", "setting": "IMI + 3 mg/kg, D9", "result": "6.8 ± 0.4"}, {"measurement": "Mean PASI Scores in IMI-Psoriasis Model", "setting": "IMI + 3 mg/kg, D10", "result": "5.5 ± 0.3"}, {"measurement": "Mean PASI Scores in IMI-Psoriasis Model", "setting": "IMI + 3 mg/kg, D11", "result": "4.0 ± 0.3"}, {"measurement": "Mean PASI Scores in IMI-Psoriasis Model", "setting": "IMI + 3 mg/kg, D12", "result": "3.5 ± 0.4"}, {"measurement": "Mean PASI Scores in IMI-Psoriasis Model", "setting": "IMI + 3 mg/kg, D13", "result": "1.8 ± 0.3"}, {"measurement": "Mean PASI Scores in IMI-Psoriasis Model", "setting": "IMI + 3 mg/kg, D14", "result": "0.8 ± 0.3"}, {"measurement": "Mean PASI Scores in IMI-Psoriasis Model", "setting": "IMI + 3 mg/kg, D15", "result": "0.4 ± 0.2"}, {"measurement": "Mean PASI Scores in IMI-Psoriasis Model", "setting": "[1]", "result": "7.1 ± 0.4"}, {"measurement": "Mean PASI Scores in IMI-Psoriasis Model", "setting": "IMI + 10 mg/kg, D9", "result": "5.3 ± 0.6"}, {"measurement": "Mean PASI Scores in IMI-Psoriasis Model", "setting": "IMI + 10 mg/kg, D10", "result": "4.3 ± 0.5"}, {"measurement": "Mean PASI Scores in IMI-Psoriasis Model", "setting": "IMI + 10 mg/kg, D11", "result": "4.4 ± 0.4"}, {"measurement": "Mean PASI Scores in IMI-Psoriasis Model", "setting": "IMI + 10 mg/kg, D12", "result": "2.9 ± 0.5"}, {"measurement": "Mean PASI Scores in IMI-Psoriasis Model", "setting": "IMI + 10 mg/kg, D13", "result": "1.5 ± 0.2"}, {"measurement": "Mean PASI Scores in IMI-Psoriasis Model", "setting": "IMI + 10 mg/kg, D14", "result": "0.6 ± 0.2"}, {"measurement": "Mean PASI Scores in IMI-Psoriasis Model", "setting": "IMI + 10 mg/kg, D15", "result": "0.4 ± 0.2"}, {"measurement": "body weight change over the last 7 days", "setting": "mouse, in vivo", "result": "weight gains"}, {"measurement": "erythema, induration and peeling of the skin at the area of induction", "setting": "mouse, in vivo", "result": "significantly reduced"}, {"measurement": "use of enrichment (nesting)", "setting": "relative to vehicle-treated psoriasis animals", "result": "restored the use of enrichment"}, {"measurement": "IL-17 level, lower than vehicle (placebo) treated animals", "setting": "serum, day 15", "result": "> 93", "unit": "%"}]}
